Test results reported in publication PMC3314937, “Identifying improved TSPO PET imaging probes through biomathematics: The impact of multiple TSPO binding sites in vivo” (Neuroimage, 2012).
Where two headings read alike, the source gives them in different places. Marks after values point to notes of the source that are not given here.

Experiments:
TSPO [1] = test: competition assays with ^3H-PK11195 for each binding class; set-up: species or system human
[2] = equilibrium dialysis, free fractions in plasma and brain tissue; conditions: 1 μg/g, dialysis against PBS pH 7.4, 5 h, 37 °C
Procedure: (§1) The fP and fND were measured from Landrace pig tissue (blood and brain — obtained from Charles River Laboratories, Tranent, Scotland) using equilibrium dialysis ([Summerfield et al., 2006]). In brief, the cold test compounds were spiked into plasma or brain homogenate at a concentration of 1 μg/g and dialysed against phosphate buffered saline (PBS, pH 7.4) for 5 h at 37 °C. Aliquots (20–50 μL) of plasma, brain and dialysate were taken and extracted using acetonitrile containing internal standard, followed by LC–MS/MS analysis. The free fractions were determined as the concentration ratio of analyte in dialysate to that in plasma or brain.

TSPO [3] = test system: TSPO; set-up: method as in Owen et al. (2010, 2011); conditions: 37 °C, ref Owen et al. (2010, 2011), cited from earlier work; for Bmax-H: HABs, ^3H-PBR28 values also used for PBR111 and DPA713, ^3H-PK11195 for PK11195; for Bmax-L: LABs; for Bmax-M: MABs, both high and low affinity sites, Bmax_H used for PK11195
in vitro = conditions: Landrace, pig, pH 7.4
Procedure: as §1

TSPO [4] = conditions: ^3H-PK11195, 37 °C, ref Owen et al. (2010, 2011), cited from earlier work

SMILES	affinity ratio (high:low binding site) (TSPO [1])	fND (free fraction in tissue) ([2]; pig brain homogenate)	fp (free fraction in plasma) ([2]; pig plasma)	Bmax-H (TSPO [3])	Bmax-L (TSPO [3])	Bmax-M (TSPO [3])	fraction unbound at 5 h, 1 μg/g (in vitro; brain homogenate)	fraction unbound at 5 h, 1 μg/g (in vitro; plasma)	Ki (TSPO [4]; high affinity site (HABs), read-out: Ki-H)	Ki (TSPO [4]; low affinity site (LABs), read-out: Ki-L)
CCN(CC)C(=O)Cc1c(-c2ccc(OCCC[18F])cc2)nc2ccc(Cl)cn12 [^18F-PBR111]	~ 4	0.06 ± 0.005 (n = 6)	0.19 ± 0.018 (n = 6)	193 ± 66 (n = 6) nM	99.4 ± 35 (n = 5) nM	186 ± 37 (n = 4) nM	–	–	–	–
CC[C@@H](C)N(C)C(=O)c1cc2ccccc2c(-c2ccccc2Cl)n1 [^11C-(R)-PK11195]	–	–	–	433 ± 154 (n = 9) nM	506 ± 131 (n = 5) nM	433 ± 154 ^b (n = 9) nM	0.01 ± 0.002	0.14 ± 0.039	–	–
CCN(CC)C(=O)Cc1c(-c2ccc(O[11CH3])cc2)nn2c(C)cc(C)nc12 [^11C-DPA713]	–	–	–	193 ± 66 (n = 6) nM	99.4 ± 35 (n = 5) nM	186 ± 37 (n = 4) nM	–	–	–	–
CCN(CC)C(=O)Cc1c(-c2ccc(OCCCF)cc2)nc2ccc(Cl)cn12 [^18F-PBR111]	–	–	–	–	–	–	–	–	15.6 ± 3.7 nM	61.8 ± 10.7 nM
